{"source": "patent US6647980B1", "about": "“Method for administration of active substances to the olfactory region” (priority 1997, dated 2003)", "test": "Dynamic viscosity, Brookfield Digital Viscometer", "format": "physicochemical", "settings": "dye preparation", "description": "The viscosity of the preparations were determined by means of a Brookfield Digital Viscometer, model DV-I+, version 2.0, at 25° after stabilisation for 30 min."}
{"substance": "brilliant blue dye", "values": [{"measurement": "Viscosity (cP)", "setting": "NaCMC conc. 0 (water)", "value": "1 (water) cP"}, {"measurement": "Viscosity (cP)", "setting": "NaCMC conc. 0.2 (w/v), with Tween 40 and methyl paraoxybenzoate", "value": 22.0, "unit": "cP"}, {"measurement": "Viscosity (cP)", "setting": "NaCMC conc. 0.5 (w/v), with Tween 40 and methyl paraoxybenzoate", "value": 85.2, "unit": "cP"}]}
